In patent US5153128A, “Heat-resistant β-galactosyltransferase, its production process and its use” (Suntory Limited, priority 1990, dated 1992) one finds Residual activity data, which are given here for one compound.

For the assay, the target named is T1, heat-resistant β-galactosyltransferase produced by Saccharopolyspora rectivirgula SAM 1400 (Saccharopolyspora rectivirgula, UniProt Q9ZBD1).
T1 construct: about 140 kDa by gel filtration
Nature of the assay: Inhibitors: residual activity of the enzyme in the presence of compounds (Table 3). Particulars: enzyme in presence of the compound; compound concentration not given. Type of assay: biochemical.

T1 sequence (Q9ZBD1 entry or part of it, change not shown): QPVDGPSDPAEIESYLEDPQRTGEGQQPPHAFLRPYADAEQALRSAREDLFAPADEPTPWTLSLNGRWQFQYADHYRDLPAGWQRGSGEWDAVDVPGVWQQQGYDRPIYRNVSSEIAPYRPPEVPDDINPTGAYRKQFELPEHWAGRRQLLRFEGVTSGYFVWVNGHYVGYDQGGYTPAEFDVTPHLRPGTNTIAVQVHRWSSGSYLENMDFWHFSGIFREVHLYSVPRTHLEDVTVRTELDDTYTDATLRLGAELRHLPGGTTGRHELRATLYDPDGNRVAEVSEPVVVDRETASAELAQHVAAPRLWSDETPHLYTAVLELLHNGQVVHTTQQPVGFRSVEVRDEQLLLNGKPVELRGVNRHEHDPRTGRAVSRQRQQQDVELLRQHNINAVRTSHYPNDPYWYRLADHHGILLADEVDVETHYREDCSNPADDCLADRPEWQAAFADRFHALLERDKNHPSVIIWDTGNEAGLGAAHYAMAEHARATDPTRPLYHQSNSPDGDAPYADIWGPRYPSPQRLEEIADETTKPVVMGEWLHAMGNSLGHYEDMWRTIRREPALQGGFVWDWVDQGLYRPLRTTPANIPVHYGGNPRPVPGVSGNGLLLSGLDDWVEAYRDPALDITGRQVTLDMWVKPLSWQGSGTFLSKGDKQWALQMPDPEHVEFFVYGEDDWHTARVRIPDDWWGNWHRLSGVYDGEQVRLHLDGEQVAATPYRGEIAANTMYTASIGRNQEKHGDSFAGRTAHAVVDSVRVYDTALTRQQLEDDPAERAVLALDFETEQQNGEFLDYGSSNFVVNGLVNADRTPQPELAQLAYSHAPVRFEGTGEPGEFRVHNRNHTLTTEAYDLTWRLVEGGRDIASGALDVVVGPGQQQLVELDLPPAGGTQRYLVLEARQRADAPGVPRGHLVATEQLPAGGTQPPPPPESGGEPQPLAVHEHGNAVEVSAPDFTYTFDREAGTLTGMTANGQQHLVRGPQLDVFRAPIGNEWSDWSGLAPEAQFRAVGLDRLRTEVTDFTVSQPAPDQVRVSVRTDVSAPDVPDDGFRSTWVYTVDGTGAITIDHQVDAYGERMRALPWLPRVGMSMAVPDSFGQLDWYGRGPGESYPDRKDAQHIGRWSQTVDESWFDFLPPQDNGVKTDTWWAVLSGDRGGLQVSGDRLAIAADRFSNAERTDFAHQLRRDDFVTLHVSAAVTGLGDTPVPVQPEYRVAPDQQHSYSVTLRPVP

As for `OCCS` [2-Mercaptoethanol], the Residual activity was 96%.
